From patent US20160038468A1 (priority 2013, published 2016)
In brackets after ≈: the same amount, converted by molar mass. Like-named read-outs stand apart in the source and are kept apart here.

Tests used:
Format in all cases: cell-based
Finegoldia magna = test: Agar dilution MIC (CLSI), Finegoldia magna vaginal isolates; settings: # tested 20
Peptoniphilus harei = test: Agar dilution MIC (CLSI), Peptoniphilus harei vaginal isolates; settings: for MIC: read-out: Minimal Inhibitory Concentration (MIC)
Peptoniphilus lacrimalis = test: Agar dilution MIC (CLSI), Peptoniphilus lacrimalis vaginal isolates; settings: for MIC: read-out: Minimal Inhibitory Concentration (MIC)
[1] = system: Megasphaera-like bacteria; test: Agar dilution MIC (CLSI), Megasphaera-like bacteria vaginal isolates; settings: for MIC: read-out: Minimal Inhibitory Concentration (MIC)
[2] = Peptoniphilus harei, # tested 23
[3] = Peptoniphilus lacrimalis, # tested 20

Work on `Cc1ncc([N+](=O)[O-])n1CCO` [Metronidazole] yielded an MIC50 (Finegoldia magna; Finegoldia magna) of 2 µg/mL (≈ 11.7 µM), an MIC90 (Finegoldia magna; Finegoldia magna) of 4 µg/mL (≈ 23.4 µM) and an Intermediate (Finegoldia magna; number (%) of isolates) of 0 µg/mL. For the same compound, the Susceptible (Finegoldia magna; number (%) of isolates) was 20 (100) μg/ml, the “MIC Range” value (Peptoniphilus harei; # tested 23) was 1 to 4 µg/mL and the MIC (Peptoniphilus harei; Peptoniphilus harei, isolate 426868V D) was 2 µg/mL (≈ 11.7 µM). The MIC (Peptoniphilus harei; Peptoniphilus harei, isolate 601098V Q) was 1 µg/mL (≈ 5.84 µM), the MIC (Peptoniphilus harei; Peptoniphilus harei, isolate 601203V 8) was 2 µg/mL (≈ 11.7 µM) and the MIC (Peptoniphilus harei; Peptoniphilus harei, isolate 601212V 15) was 1 µg/mL (≈ 5.84 µM). For the same compound, the MIC (Peptoniphilus harei; Peptoniphilus harei, isolate 601233V R) was 4 µg/mL (≈ 23.4 µM), the MIC (Peptoniphilus harei; Peptoniphilus harei, isolate 601248V 23) was 1 µg/mL (≈ 5.84 µM) and the MIC (Peptoniphilus harei; Peptoniphilus harei, isolate 601259V 11) was 2 µg/mL (≈ 11.7 µM). The MIC (Peptoniphilus harei; Peptoniphilus harei, isolate 601289V C) was 2 µg/mL (≈ 11.7 µM), the MIC (Peptoniphilus harei; Peptoniphilus harei, isolate 601293V 21) was 1 µg/mL (≈ 5.84 µM) and the MIC (Peptoniphilus harei; Peptoniphilus harei, isolate 601302V F1) was 2 µg/mL (≈ 11.7 µM). The MIC (Peptoniphilus harei; Peptoniphilus harei, isolate 601311V R) was 1 µg/mL (≈ 5.84 µM), the MIC (Peptoniphilus harei; Peptoniphilus harei, isolate 601326V F) was 2 µg/mL (≈ 11.7 µM) and the MIC (Peptoniphilus harei; Peptoniphilus harei, isolate 601342V F) was 1 µg/mL (≈ 5.84 µM). It also gave an MIC (Peptoniphilus harei; Peptoniphilus harei, isolate 601355V D) of 1 µg/mL (≈ 5.84 µM), an MIC (Peptoniphilus harei; Peptoniphilus harei, isolate 601365V 14) of 1 µg/mL (≈ 5.84 µM) and an MIC (Peptoniphilus harei; Peptoniphilus harei, isolate 601374V F) of 2 µg/mL (≈ 11.7 µM). It also gave an MIC (Peptoniphilus harei; Peptoniphilus harei, isolate 601388V Q) of 1 µg/mL (≈ 5.84 µM), an MIC (Peptoniphilus harei; Peptoniphilus harei, isolate 601399V 16) of 1 µg/mL (≈ 5.84 µM) and an MIC (Peptoniphilus harei; Peptoniphilus harei, isolate 601409V L) of 1 µg/mL (≈ 5.84 µM). The MIC (Peptoniphilus harei; Peptoniphilus harei, isolate 601413V 16) was 2 µg/mL (≈ 11.7 µM), the MIC (Peptoniphilus harei; Peptoniphilus harei, isolate 601426V D) was 1 µg/mL (≈ 5.84 µM) and the MIC (Peptoniphilus harei; Peptoniphilus harei, isolate 601430V 22) was 1 µg/mL (≈ 5.84 µM). The MIC (Peptoniphilus harei; Peptoniphilus harei, isolate 601539V 25B) was 2 µg/mL (≈ 11.7 µM), the MIC50 (Peptoniphilus harei; [2]) was 1 µg/mL (≈ 5.84 µM) and the MIC90 (Peptoniphilus harei; [2]) was 2 µg/mL (≈ 11.7 µM). The “MIC Range” value (Peptoniphilus lacrimalis; # tested 20) was 0.5 to 4 µg/mL, the MIC (Peptoniphilus lacrimalis; Peptoniphilus lacrimalis, isolate 601028V 27A) was 2 µg/mL (≈ 11.7 µM) and the MIC (Peptoniphilus lacrimalis; Peptoniphilus lacrimalis, isolate 601060V 32A) was 2 µg/mL (≈ 11.7 µM). It also gave an MIC (Peptoniphilus lacrimalis; Peptoniphilus lacrimalis, isolate 601078V O) of 1 µg/mL (≈ 5.84 µM), an MIC (Peptoniphilus lacrimalis; Peptoniphilus lacrimalis, isolate 601084V c) of 4 µg/mL (≈ 23.4 µM) and an MIC (Peptoniphilus lacrimalis; Peptoniphilus lacrimalis, isolate 601105V 13) of 4 µg/mL (≈ 23.4 µM). It also gave an MIC (Peptoniphilus lacrimalis; Peptoniphilus lacrimalis, isolate 601139V 17) of 4 µg/mL (≈ 23.4 µM), an MIC (Peptoniphilus lacrimalis; Peptoniphilus lacrimalis, isolate 601213V 17) of 2 µg/mL (≈ 11.7 µM) and an MIC (Peptoniphilus lacrimalis; Peptoniphilus lacrimalis, isolate 601255V 12) of 1 µg/mL (≈ 5.84 µM). It also gave an MIC (Peptoniphilus lacrimalis; Peptoniphilus lacrimalis, isolate 601261V O) of 1 µg/mL (≈ 5.84 µM), an MIC (Peptoniphilus lacrimalis; Peptoniphilus lacrimalis, isolate 601293V 15) of 1 µg/mL (≈ 5.84 µM) and an MIC (Peptoniphilus lacrimalis; Peptoniphilus lacrimalis, isolate 601296V N) of 1 µg/mL (≈ 5.84 µM). The MIC (Peptoniphilus lacrimalis; Peptoniphilus lacrimalis, isolate 601305V K-1) was 1 µg/mL (≈ 5.84 µM), the MIC (Peptoniphilus lacrimalis; Peptoniphilus lacrimalis, isolate 601318V E) was 1 µg/mL (≈ 5.84 µM) and the MIC (Peptoniphilus lacrimalis; Peptoniphilus lacrimalis, isolate 601330V H) was 1 µg/mL (≈ 5.84 µM). For the same compound, the MIC (Peptoniphilus lacrimalis; Peptoniphilus lacrimalis, isolate 601336V 47) was 1 µg/mL (≈ 5.84 µM), the MIC (Peptoniphilus lacrimalis; Peptoniphilus lacrimalis, isolate 601365V 13) was 2 µg/mL (≈ 11.7 µM) and the MIC (Peptoniphilus lacrimalis; Peptoniphilus lacrimalis, isolate 601368V 39) was 0.5 µg/mL (≈ 2.92 µM). The MIC (Peptoniphilus lacrimalis; Peptoniphilus lacrimalis, isolate 601375V E) was 1 µg/mL (≈ 5.84 µM), the MIC (Peptoniphilus lacrimalis; Peptoniphilus lacrimalis, isolate 601388V B) was 1 µg/mL (≈ 5.84 µM) and the MIC (Peptoniphilus lacrimalis; Peptoniphilus lacrimalis, isolate 601401V I) was 1 µg/mL (≈ 5.84 µM). For the same compound, the MIC50 (Peptoniphilus lacrimalis; [3]) was 1 µg/mL (≈ 5.84 µM), the MIC90 (Peptoniphilus lacrimalis; [3]) was 4 µg/mL (≈ 23.4 µM) and the MIC ([1]; 427510 h, isolate 427507 H) was 0.25 µg/mL (≈ 1.46 µM). For the same compound, the MIC50 ([1]; # tested 25) was 0.25 µg/mL (≈ 1.46 µM), the MIC90 ([1]; # tested 25) was 0.25 µg/mL (≈ 1.46 µM) and the MIC ([1]; isolate 426749 T) was 0.25 µg/mL (≈ 1.46 µM). It also gave an MIC ([1]; isolate 426766 Q) of 0.25 µg/mL (≈ 1.46 µM), an MIC ([1]; isolate 426788 8a) of 0.25 µg/mL (≈ 1.46 µM) and an MIC ([1]; isolate 426788 C) of 0.25 µg/mL (≈ 1.46 µM). It also gave an MIC ([1]; isolate 427522 8) of 0.25 µg/mL (≈ 1.46 µM), an MIC ([1]; isolate 600770 O) of 0.25 µg/mL (≈ 1.46 µM) and an MIC ([1]; isolate 600790 N) of 0.25 µg/mL (≈ 1.46 µM). It also gave an MIC ([1]; isolate 600831 9) of 0.25 µg/mL (≈ 1.46 µM), an MIC ([1]; isolate 600837 18) of 0.25 µg/mL (≈ 1.46 µM) and an MIC ([1]; isolate 600861 P) of 0.25 µg/mL (≈ 1.46 µM). It also gave an MIC ([1]; isolate 602236 E3) of 50.2 µg/mL (≈ 294 µM), an MIC ([1]; isolate 602241 D) of 0.25 µg/mL (≈ 1.46 µM) and an MIC ([1]; isolate 602241 F) of 0.25 µg/mL (≈ 1.46 µM). The MIC ([1]; isolate 602270 A) was 0.25 µg/mL (≈ 1.46 µM), the MIC ([1]; isolate 602282 I) was 0.25 µg/mL (≈ 1.46 µM) and the MIC ([1]; isolate 602302 22) was 0.25 µg/mL (≈ 1.46 µM). For the same compound, the MIC ([1]; isolate 602305 I) was 0.25 µg/mL (≈ 1.46 µM), the MIC ([1]; isolate 602324 8) was 0.25 µg/mL (≈ 1.46 µM) and the MIC ([1]; isolate 602672 12A) was 0.25 µg/mL (≈ 1.46 µM).
